What was measured:
[1] = system: NMRI mice; assay: formalin test (in-vivo test for analgesic effectiveness); set-up: key to Mean deviation of the pain reaction compared to control (%) 30–35′ after administration of formalin / Mean deviation of the pain reaction compared to control (%) 20–25′ after administration of formalin: (+): Intensified pain reaction
Procedure: (§1) In each case, the maximum dosage selected for the concentration of azaspiro compounds was held, by a factor of about 2, below the toxic dose previously determined in the IRWIN test (Irwin, Psychopharmacologia 13 (1968) 222).
A reduction in the pain reaction is expressed in negative percentage figures.
1. In-vivo Test for Determining the Analgesic Effectiveness of the Azaspiro Compounds
The test was conducted as described by Wheeler-Aceto (Psychopharmacology 104, 1991, 35).
NMRI mice having a weight of 20-25 g were kept under controlled conditions (22±2° C., 40-70% relative humidity). 25 μl of a 5% formocarbonyl solution was injected in the hind leg and the leg-licking frequency was then clocked for 5 minutes each at defined intervals (20, 30, 40 minutes).
Next, for the formalin test, the test substances were dissolved in a physiological salt solution with 0.5% sodium carboxymethyl cellulose and were each measured in 1-3 dosages that had been applied intraperitoneally 10 minutes before administration of formalin. The comparative reference value was provided by a control excipient (10 ml/kg).
The test was performed in blind fashion on 10 mice per test series. The evaluation was based on a comparison of the treated animals with control excipients at three different times. […] Accordingly, an average 50% reduction of the pain reaction for the treated animals is obtained when in a defined period (e.g. 30-35′ after the formalin injection) the leg-licking duration (averaged over the 10 test animals) is reduced by 50% compared to the untreated animals. The statistical significance was determined using the Mann-Whitney U-test.

[2] = IRWIN test (toxic dose / maximally tolerable dosage); assay type: in vivo
Procedure: as §1, with “FIG. 1 and Table 1 show the reaction of test animals 20-45 minutes after the intraperitoneal administration of selected compounds. In” for “In”
First, the highest possible non-toxic concentration of the respective test substances that could be used was determined by an IRWIN test (Irwin, Psychopharmacologia 13, 1968, 222).

[3] = 8 mg/kg i.p., Test series 1 (n = 10)
[4] = 8 mg/kg i.p., Test series 2 (n = 10)
[5] = 16 mg/kg i.p., Test series 1 (n = 10)
[6] = 16 mg/kg i.p., Test series 2 (n = 10)
[7] = 32 mg/kg i.p., Test series 1 (n = 10)
[8] = 32 mg/kg i.p., Test series 2 (n = 10)
[9] = 4 mg/kg i.p., Test series 2 (n = 10)
[10] = 64 mg/kg i.p., Test series 1 (n = 10)
[11] = 64 mg/kg i.p., Test series 2 (n = 10)
[12] = 32 mg/kg i.p., (n = 10), no test series named

Compound | Mean deviation of the pain reaction compared to control (%) 20–25′ after administration of formalin [1, 5] | Mean deviation of the pain reaction compared to control (%) 30–35′ after administration of formalin [1, 5] | Mean deviation of the pain reaction compared to control (%) 20–25′ after administration of formalin [1, 6] | Mean deviation of the pain reaction compared to control (%) 30–35′ after administration of formalin [1, 6] | Mean deviation of the pain reaction compared to control (%) 40–45′ after administration of formalin [1, 6] | Mean deviation of the pain reaction compared to control (%) 20–25′ after administration of formalin [1, 7] | Mean deviation of the pain reaction compared to control (%) 30–35′ after administration of formalin [1, 7] | Mean deviation of the pain reaction compared to control (%) 40–45′ after administration of formalin [1, 5] | Mean deviation of the pain reaction compared to control (%) 40–45′ after administration of formalin [1, 7] | Mean deviation of the pain reaction compared to control (%) 20–25′ after administration of formalin [1, 10] | Mean deviation of the pain reaction compared to control (%) 30–35′ after administration of formalin [1, 10] | Mean deviation of the pain reaction compared to control (%) 40–45′ after administration of formalin [1, 10] | further results
O=C1CC2(CCCCC2)CN1 [GPL, 2-azaspiro[4.5]decan-3-on, reference compound] | (+) | (+) | −74% | −40% | −41% | (+) | −10% |  |  |  |  |  | Mean deviation of the pain reaction compared to control (%) 20–25′ after administration of formalin [1, 3]: (+); Mean deviation of the pain reaction compared to control (%) 30–35′ after administration of formalin [1, 3]: (+); Mean deviation of the pain reaction compared to control (%) 20–25′ after administration of formalin [1, 4]: −58%; Mean deviation of the pain reaction compared to control (%) 30–35′ after administration of formalin [1, 4]: −18%; Mean deviation of the pain reaction compared to control (%) 40–45′ after administration of formalin [1, 4]: −15%; Mean deviation of the pain reaction compared to control (%) 20–25′ after administration of formalin [1, 8]: −64%; Mean deviation of the pain reaction compared to control (%) 30–35′ after administration of formalin [1, 8]: −15%; Mean deviation of the pain reaction compared to control (%) 40–45′ after administration of formalin [1, 8]: −46%; side effects above the maximally tolerable dosages (sedation, tremor, hypothermia) [2]: significant lethality rate
O=C1NC(=O)C2(CCCCC2)N1 [SPM 10011, 1,3-diazaspiro[4.5]decane-2,4-dion] | −75% | −11% | −84% | −21% | −34% | −82% | −64% | −55% | −64% | −100% | −100% | −80% | Mean deviation of the pain reaction compared to control (%) 20–25′ after administration of formalin [1, 9]: −62%; Mean deviation of the pain reaction compared to control (%) 30–35′ after administration of formalin [1, 9]: (+); Mean deviation of the pain reaction compared to control (%) 20–25′ after administration of formalin [1, 11]: −100%; Mean deviation of the pain reaction compared to control (%) 30–35′ after administration of formalin [1, 11]: −100%; Mean deviation of the pain reaction compared to control (%) 40–45′ after administration of formalin [1, 11]: −97%
O=C1NCC2(CCCCC2)N1 [SPM 10019, 1,3-diazaspiro[4.5]decane-2-on] |  |  |  |  |  |  |  |  |  |  |  |  | Mean deviation of the pain reaction compared to control (%) 20–25′ after administration of formalin [1, 12]: −52%; Mean deviation of the pain reaction compared to control (%) 40–45′ after administration of formalin [1, 12]: −40%
S=C1NC(=S)C2(CCCCC2)N1 [SPM 10013, 1,3-diazaspiro[4.5]decane-2,4-dithion] | −60% | −14% |  |  |  | −82% | −60% | −49% | −30% | −98% | −95% | −78% | 

— patent publication US7282515B2, “Derivatives of azaspiro compounds for the treatment of pain” (Schwarz Pharma AG, priority 2002, dated 2007)
